Results published in US10081624B2, “Heterocyclic compound” (Takeda Pharmaceutical Company Limited, priority 2014, dated 2018).

Experiments:
HDAC6 enzyme = biological target: T1, HDAC6 enzyme (Homo sapiens, UniProt Q9UBN7); experiment: HDAC6 enzyme inhibitory assay (HDAC-Glo I/II Assay kit); type: biochemical; details: 1 μM test compound; for inhibition at 1 µM: read-out: HDAC6 inhibitory rate (%) (1 μM)
T1 construct: prepared by transducing full length HDAC1 and HDAC6 genes into Sf-9 insect cells; GST; purchased SignalChem; host or cells: Sf-9 insect cells
T1 sequence (Q9UBN7 1-1215): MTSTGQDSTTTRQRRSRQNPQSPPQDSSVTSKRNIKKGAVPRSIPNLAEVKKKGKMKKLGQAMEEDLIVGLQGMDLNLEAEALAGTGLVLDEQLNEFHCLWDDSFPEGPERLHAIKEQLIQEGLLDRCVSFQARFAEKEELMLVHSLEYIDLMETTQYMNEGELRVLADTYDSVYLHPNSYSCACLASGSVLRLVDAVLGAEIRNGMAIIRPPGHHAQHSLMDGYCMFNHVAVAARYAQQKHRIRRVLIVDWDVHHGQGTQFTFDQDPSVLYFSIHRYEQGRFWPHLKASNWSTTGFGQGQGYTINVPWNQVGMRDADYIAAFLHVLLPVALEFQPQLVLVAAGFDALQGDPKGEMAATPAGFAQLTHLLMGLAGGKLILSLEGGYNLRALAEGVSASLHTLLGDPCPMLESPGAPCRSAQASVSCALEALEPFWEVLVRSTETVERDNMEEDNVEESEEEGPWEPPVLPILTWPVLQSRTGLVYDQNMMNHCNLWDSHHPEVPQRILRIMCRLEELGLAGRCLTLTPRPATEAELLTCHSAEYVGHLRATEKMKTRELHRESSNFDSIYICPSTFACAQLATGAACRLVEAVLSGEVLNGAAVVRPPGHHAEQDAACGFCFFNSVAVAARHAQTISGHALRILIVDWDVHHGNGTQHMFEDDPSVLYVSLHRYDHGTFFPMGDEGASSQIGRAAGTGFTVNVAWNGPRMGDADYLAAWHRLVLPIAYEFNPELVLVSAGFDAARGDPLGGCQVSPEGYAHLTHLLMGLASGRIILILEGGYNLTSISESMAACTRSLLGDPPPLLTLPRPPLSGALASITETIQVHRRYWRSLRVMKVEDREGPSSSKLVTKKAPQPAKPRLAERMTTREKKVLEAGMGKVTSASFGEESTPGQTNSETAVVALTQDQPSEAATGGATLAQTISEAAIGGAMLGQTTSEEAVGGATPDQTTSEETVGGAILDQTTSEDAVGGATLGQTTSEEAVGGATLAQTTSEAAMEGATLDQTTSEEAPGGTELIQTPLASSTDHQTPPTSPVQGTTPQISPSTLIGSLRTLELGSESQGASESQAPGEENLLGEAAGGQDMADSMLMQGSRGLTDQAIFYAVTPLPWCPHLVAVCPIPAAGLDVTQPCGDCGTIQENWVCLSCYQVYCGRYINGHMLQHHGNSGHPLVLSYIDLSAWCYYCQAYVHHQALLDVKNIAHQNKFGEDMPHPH
Method in brief: (§1)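 Sf-9-expressed GST-purified full-length HDAC1/HDAC6; cpd + enzyme 60 min RT, 24 mM Tris-HCl pH 7.5, 135 mM NaCl, 0.6 mM glutathione, 0.01% Tween-20; substrate-developer 20 min RT; luminescence; no-enzyme wells = 100% inhibition.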

HDAC1 enzyme = biological target: T2, HDAC1 enzyme (Homo sapiens, UniProt Q13547); experiment: HDAC1 enzyme inhibitory assay (HDAC-Glo I/II Assay kit); type: biochemical; details: 1 μM test compound; for inhibition at 1 µM: read-out: HDAC1 inhibitory rate (%) (1 μM)
T2 construct: prepared by transducing full length HDAC1 and HDAC6 genes into Sf-9 insect cells; GST; purchased SignalChem; host or cells: Sf-9 insect cells
Method in brief: as §1

T2 sequence (Q13547 whole entry): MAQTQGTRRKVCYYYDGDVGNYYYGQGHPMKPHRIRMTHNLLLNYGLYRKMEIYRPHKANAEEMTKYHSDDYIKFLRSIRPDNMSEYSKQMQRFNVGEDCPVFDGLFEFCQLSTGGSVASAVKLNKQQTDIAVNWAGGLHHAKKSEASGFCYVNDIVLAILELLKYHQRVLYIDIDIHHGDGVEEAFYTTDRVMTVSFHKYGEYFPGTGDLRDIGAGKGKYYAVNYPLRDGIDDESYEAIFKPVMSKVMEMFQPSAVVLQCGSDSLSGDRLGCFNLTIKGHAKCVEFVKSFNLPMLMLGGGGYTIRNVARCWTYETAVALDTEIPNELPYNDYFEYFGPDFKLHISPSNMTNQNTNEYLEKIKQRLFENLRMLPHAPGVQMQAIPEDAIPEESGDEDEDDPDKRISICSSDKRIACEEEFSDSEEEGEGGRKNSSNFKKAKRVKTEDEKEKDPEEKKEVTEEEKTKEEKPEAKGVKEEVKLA

SMILES	inhibition at 1 µM (HDAC6 enzyme)	inhibition at 1 µM (HDAC1 enzyme)	HDAC1 inhibitory rate (%) (1 μM) (HDAC1 enzyme; 1 µM)	HDAC6 inhibitory rate (%) (1 μM) (HDAC6 enzyme; 1 µM)
O=C(NC[C@H]1COCCN1C(=O)N1CC2CCC(C1)O2)c1ccc(-c2noc(C(F)(F)F)n2)cc1 [Example 110, N-(((3S)-4-(8-oxa-3-azabicyclo[3.2.1]oct-3-ylcarbonyl)morpholin-3-yl)methyl)-4-(5-(trifluoromethyl)-1,2,4-oxadiazol-3-yl)benzamide]	96%	10%	–	–
O=C(NC[C@H]1COCCN1C(=O)N1CCOCC1CO)c1ccc(-c2noc(C(F)(F)F)n2)cc1 (stereo partly drawn) [Example 310, N-(((3S)-4-((3-(hydroxymethyl)morpholin-4-yl)carbonyl)morpholin-3-yl)methyl)-4-(5-(trifluoromethyl)-1,2,4-oxadiazol-3-yl)benzamide]	98%	–	3%	–
O=C(NCC1COCCN1C(=O)c1ccccc1)c1ccc(-c2noc(C(F)(F)F)n2)cc1 (centres unmarked) [Example 1, N-((4-benzoylmorpholin-3-yl)methyl)-4-(5-(trifluoromethyl)-1,2,4-oxadiazol-3-yl)benzamide]	98%	22%	–	–
O=C(NC[C@@H]1COCCN1C(=O)c1csnn1)c1ccc(-c2noc(C(F)(F)F)n2)cc1 [Example 142, N-(((3R)-4-(1,2,3-thiadiazol-4-ylcarbonyl)morpholin-3-yl)methyl)-4-(5-(trifluoromethyl)-1,2,4-oxadiazol-3-yl)benzamide]	96%	12%	–	–
O=C(NCC1CN(C(=O)c2ccccc2)CCN1C(=O)c1ccccc1)c1ccc(-c2noc(C(F)(F)F)n2)cc1 (centres unmarked) [Example 165, N-((1,4-dibenzoylpiperazin-2-yl)methyl)-4-(5-(trifluoromethyl)-1,2,4-oxadiazol-3-yl)benzamide]	99%	17%	–	–
O=C(NC[C@H]1COCCN1C(=O)N1CCCC(F)(F)C1)c1ccc(-c2noc(C(F)(F)F)n2)cc1 [Example 307, N-(((3S)-4-((3,3-difluoropiperidin-1-yl)carbonyl)morpholin-3-yl)methyl)-4-(5-(trifluoromethyl)-1,2,4-oxadiazol-3-yl)benzamide]	98%	9%	–	–
CC(C)(C(=O)N1CCOCC1CNC(=O)c1ccc(-c2noc(C(F)(F)F)n2)cc1)c1ccccc1 (stereo in doubt) [Example 95, N-(((3S)-4-(2-methyl-2-phenylpropanoyl)morpholin-3-yl)methyl)-4-(5-(trifluoromethyl)-1,2,4-oxadiazol-3-yl)benzamide]	99%	30%	–	–
O=C(NC[C@H]1COCCN1C(=O)N1CCC2(CC1)COC2)c1ccc(-c2noc(C(F)(F)F)n2)cc1 [Example 282, N-(((3S)-4-(2-oxa-7-azaspiro[3.5]non-7-ylcarbonyl)morpholin-3-yl)methyl)-4-(5-(trifluoromethyl)-1,2,4-oxadiazol-3-yl)benzamide]	83%	5%	–	–
Cn1cc2c(C(=O)N3CCOC[C@@H]3CNC(=O)c3ccc(-c4noc(C(F)(F)F)n4)cc3)cccc2n1 [Example 85, N-(((3S)-4-((2-methyl-2H-indazol-4-yl)carbonyl)morpholin-3-yl)methyl)-4-(5-(trifluoromethyl)-1,2,4-oxadiazol-3-yl)benzamide]	96%	15%	–	–
Cc1oncc1C(=O)N1CCOCC1CNC(=O)c1ccc(-c2noc(C(F)(F)F)n2)s1 (centres unmarked) [Example 235, N-((4-((5-methyl-1,2-oxazol-4-yl)carbonyl)morpholin-3-yl)methyl)-5-(5-(trifluoromethyl)-1,2,4-oxadiazol-3-yl)thiophene-2-carboxamide]	99%	17%	–	–
O=C(NC[C@@H]1COCCN1C(=O)c1cc(F)cc(F)c1)c1ccc(-c2noc(C(F)(F)F)n2)cc1 [Example 155, N-(((3R)-4-(3,5-difluorobenzoyl)morpholin-3-yl)methyl)-4-(5-(trifluoromethyl)-1,2,4-oxadiazol-3-yl)benzamide]	99%	15%	–	–
O=C(NCC1COCCN1C(=O)C1CCCCC1)c1ccc(-c2noc(C(F)(F)F)n2)cc1 (centres unmarked) [Example 25, N-((4-(cyclohexylcarbonyl)morpholin-3-yl)methyl)-4-(5-(trifluoromethyl)-1,2,4-oxadiazol-3-yl)benzamide]	102%	20%	–	–
Cc1nn(C)c(C)c1C(=O)N1CCOC[C@@H]1CNC(=O)c1ccc(-c2noc(C(F)(F)F)n2)cc1 [Example 67, 4-(5-(trifluoromethyl)-1,2,4-oxadiazol-3-yl)-N-(((3S)-4-((1,3,5-trimethyl-1H-pyrazol-4-yl)carbonyl)morpholin-3-yl)methyl)benzamide]	95%	5%	–	–
Cc1nnsc1C(=O)N1CCOC[C@@H]1CNC(=O)c1ccc(-c2noc(C(F)(F)F)n2)cc1 [Example 68, N-(((3S)-4-((4-methyl-1,2,3-thiadiazol-5-yl)carbonyl)morpholin-3-yl)methyl)-4-(5-(trifluoromethyl)-1,2,4-oxadiazol-3-yl)benzamide]	101%	32%	–	–
Cc1oncc1C(=O)N1CCOC[C@@H]1CNC(=O)c1ccc(-c2noc(C(F)(F)F)n2)cc1 [Example 59, N-(((3S)-4-((5-methyl-1,2-oxazol-4-yl)carbonyl)morpholin-3-yl)methyl)-4-(5-(trifluoromethyl)-1,2,4-oxadiazol-3-yl)benzamide]	101%	22%	–	–
Cc1cc(-c2noc(C(F)(F)F)n2)ccc1C(=O)NCC1COCCN1C(=O)c1ccccc1 (centres unmarked) [Example 178, N-((4-benzoylmorpholin-3-yl)methyl)-2-methyl-4-(5-(trifluoromethyl)-1,2,4-oxadiazol-3-yl)benzamide]	24%	3%	–	–
CN1CCC[C@H]1C(=O)N1CCOC[C@@H]1CNC(=O)c1ccc(-c2noc(C(F)(F)F)n2)cc1 [Example 270, N-(((3S)-4-(1-methyl-L-prolyl)morpholin-3-yl)methyl)-4-(5-(trifluoromethyl)-1,2,4-oxadiazol-3-yl)benzamide]	59%	-1%	–	–
N#C[C@@H]1CCCN1C(=O)N1CCOC[C@@H]1CNC(=O)c1ccc(-c2noc(C(F)(F)F)n2)cc1 [Example 285, N-(((3S)-4-(((2S)-2-cyanopyrrolidin-1-yl)carbonyl)morpholin-3-yl)methyl)-4-(5-(trifluoromethyl)-1,2,4-oxadiazol-3-yl)benzamide]	83%	3%	–	–
N#Cc1ccccc1C(=O)N1CCOC[C@@H]1CNC(=O)c1ccc(-c2noc(C(F)(F)F)n2)cc1 [Example 43, N-(((3S)-4-(2-cyanobenzoyl)morpholin-3-yl)methyl)-4-(5-(trifluoromethyl)-1,2,4-oxadiazol-3-yl)benzamide]	–	14%	–	101%
CC(C)(C(=O)N1CCOCC1CNC(=O)c1ccc(-c2noc(C(F)(F)F)n2)cc1)n1cccn1 (stereo in doubt) [Example 101, N-(((3S)-4-(2-methyl-2-(1H-pyrazol-1-yl)propanoyl)morpholin-3-yl)methyl)-4-(5-(trifluoromethyl)-1,2,4-oxadiazol-3-yl)benzamide]	99%	17%	–	–
Cc1ccsc1C(=O)N1CCOC[C@@H]1CNC(=O)c1ccc(-c2noc(C(F)(F)F)n2)cc1 [Example 74, N-(((3S)-4-((3-methyl-2-thienyl)carbonyl)morpholin-3-yl)methyl)-4-(5-(trifluoromethyl)-1,2,4-oxadiazol-3-yl)benzamide]	100%	18%	–	–
Cn1nc(C(F)(F)F)cc1C(=O)N1CCOC[C@@H]1CNC(=O)c1ccc(-c2noc(C(F)(F)F)n2)cc1 [Example 64, N-(((3S)-4-((1-methyl-3-(trifluoromethyl)-1H-pyrazol-5-yl)carbonyl)morpholin-3-yl)methyl)-4-(5-(trifluoromethyl)-1,2,4-oxadiazol-3-yl)benzamide]	93%	17%	–	–
